Laboratory results from ChEMBL document CHEMBL1240402 (2010).
Active and inactive are the calls of the source. The rule behind the calls is not given here.

Legend:
Type in all cases: functional
Clostridium perfringens [1] = experiment: Antimicrobial activity against Clostridium perfringens LFM1 assessed as resistance breakpoint by DIN-standardized microdilution method
Clostridium perfringens [2] = experiment: Antimicrobial activity against Clostridium perfringens LFM1 assessed as resistance breakpoint by DANMAP method
Clostridium perfringens [3] = experiment: Antimicrobial activity against Clostridium perfringens LFM1 assessed as resistant breakpoint by EUCAST method

| Compound | Activity (Clostridium perfringens [1]) | Activity (Clostridium perfringens [2]) | Activity (Clostridium perfringens [3]) | Activity (Clostridium perfringens [3]; record 2) [mg/L] |
| --- | --- | --- | --- | --- |
| CCC[C@@H]1C[C@@H](C(=O)N[C@@H]([C@H]2O[C@H](SC)[C@H](O)[C@@H](O)[C@H]2O)[C@H](C)Cl)N(C)C1 | inactive |  |  |  |
| CC[C@H]1OC(=O)[C@H](C)[C@@H](O[C@H]2C[C@@](C)(OC)[C@@H](O)[C@H](C)O2)[C@H](C)[C@@H](O[C@@H]2O[C@H](C)C[C@H](N(C)C)[C@H]2O)[C@](C)(O)C[C@@H](C)C(=O)[C@H](C)[C@@H](O)[C@]1(C)O | inactive |  |  |  |
| O=C(N[C@H](CO)[C@H](O)c1ccc([N+](=O)[O-])cc1)C(Cl)Cl |  | inactive |  |  |
| CS(=O)(=O)c1ccc([C@@H](O)[C@@H](CF)NC(=O)C(Cl)Cl)cc1 [FLORFENICOL] |  | inactive |  |  |
| CC(=O)NC[C@H]1CN(c2ccc(N3CCOCC3)c(F)c2)C(=O)O1 [LINEZOLID] | >4 mg/L | >4 mg/L | inactive | >4 |
